# Assay results from patent US20230141988A1, “PHARMACEUTICAL COMPOSITION FOR USE IN THE TREATMENT OF NEUROLOGICAL DISEASES” (Aclipse One Inc., priority 2020, published 2023).
# Several values for one entry are separate records, joined by “and”; a condition that tells them apart may be missing. Identical values can stand only once. Like-named read-outs stand apart in the source and are kept apart here.
# What was measured:
# [1] = mouse, in vivo
# Description: (§1) 9 male C57BL/6J mice following administration of a single subcutaneous dose of 4.40 mg/kg. The vehicle for the subcutaneous formulation contained “0.1% sodium metabisulfite solution”.
# (§2) Male C57BL/6J mice were purchased from Si Bei Fu Laboratory Animal Technology Co. Ltd (Beijing, China). The animals were about 8 weeks old with body weights of 20-30 g on the dosing date. The animals were housed in a 12-hour light/12-hour dark cycle environment and had free access to food and water. All animals were fasted overnight and fed after 4 hours collection.
# (§3) For group 1, plasma samples were collected from dorsal metatarsal vein at each time point after subcutaneous administrations.
# (§4) For plasma samples, about 30 μL or 300 μL of blood samples were collected from each animal via dorsal metatarsal vein or heart. These blood samples were placed into the tubes containing K2EDTA. And centrifugation at 3000 g for 10 minutes in a 4° C. centrifuge. The completion time from collection was less than 30 min. The stabilizing agent of ascorbic acid at 200 mg/mL was added in a proportion of 10% in plasma. The plasma samples were stored in a freezer at −75±15° C. prior to analysis. The completion time from collection was less than 60 min.
# (§5) For brain and CSF samples, The animals were fully exsanguinated with a rising concentration of CO2 gas prior to CSF and brain collection.
# (§6) For CSF collection, incision was made by scissors on the neck of the rats to expose the foramen magnum. A syringe fitted with a venoclysis needle was used to sample the CSF, the tip of the needle was inserted into the membrane of foramen magnum about 1-2 mm, and a negative pressure was applied by pulling a stopcock a small length of the syringe to extract CSF fluids into a tube. The stopcock was further actuated to until a sufficient amount of CSF was collected. There should be no blood in the CSF fluid. A stabilizing agent of ascorbic acid at 200 mg/mL was added in a proportion of 10% in CSF.
# (§7) For brain collection. Brain samples were collected at an adopted time point, and washed 3 times with cold saline, then dried with clean gauze and put into the weighed tube, quick frozen in an ice box and kept at −75±15° C. All brain samples were weighted and homogenized with phosphate buffered saline (PBS) by brain weight (g) to PBS volume (mL) ratio 1:3 before analysis. The stabilizing agent of ascorbic acid at 200 mg/mL was added in a proportion of 10% in grain homogenate. The actual concentration was the detected value multiplied by the dilution factor. Brain samples were collected at designed time point, quickly homogenized and kept at −75±15° C.
# (§8) Calibration standard working solutions were prepared at concentrations of 2, 5, 10, 20, 50, 100, 500, 1000, 5000 and 10000 ng/mL by serial dilution of the standard stock solution in 50% acetonitrile in water. Quality control working solutions at concentrations of 5, 10, 500 and 8000 ng/mL were prepared by serial dilution of the standard stock solution in 50% acetonitrile in water. These QC samples were prepared on the day of analysis in the same way as calibration standards.
# (§9) For plasma and brain samples, 3 μL of each calibration standard working solution (2, 5, 10, 20, 50, 100, 500, 1000, 5000 and 10000 ng/mL) was added to 30 μL of the blank C57BL/6J mouse plasma or brain homogenate (with 10% 200 mg/mL ascorbic acid) to achieve calibration standards of 0.2-1000 ng/mL (0.2, 0.5, 1, 2, 5, 10, 50, 100, 500, 1000 ng/mL) in a total volume of 33 μL. Quality Control (QC) samples at 0.5 ng/mL (low-1), 1 ng/mL (low-2), 50 ng/mL (mid), 800 ng/mL (high) for plasma were prepared independently for those used for the calibration curves. These QC samples were prepared on the day of analysis in the same way as calibration standards.
# [2] = male, SD, rat, in vivo, iv, 0.88 mg/kg, 1 h
# Description: (§10) The vehicle for the IV, subcutaneous, PO and IN formulation contained “0.1% sodium metabisulfite solution”.
# (§11) Male SD rats were purchased from Si Bei Fu Laboratory Animal Technology Co. Ltd (Beijing, China). The animals were about 8 weeks old with body weights of 200-300 g on the dosing date. The animals were housed in a 12-hour light/12-hour dark cycle environment and had free access to food and water. All animals were fasted overnight and fed after 4 hours collection.
# (§12) Plasma samples were collected from jugular vein at each time point after IV, subcutaneous, PO and IN administrations.
# (§13) About 200 μL of blood samples were collected from each animal via jugular vein. These blood samples were placed into the tubes containing K2EDTA. And centrifugation at 3000 g for 10 minutes in a 4° C. centrifuge. The completion time from collection was less than 30 min. The stabilizing agent of ascorbic acid at 200 mg/mL was added in a proportion of 10% in plasma. The plasma samples were stored in a freezer at −75±15° C. prior to analysis. The completion time from collection was less than 60 min.
# (§14) Calibration standard working solutions were prepared at concentrations of 2, 5, 10, 20, 50, 100, 500, 1000, 5000 and 10000 ng/mL by serial dilution of the standard stock solution in 50% acetonitrile in water. Quality control working solutions at concentrations of 5, 10, 20, 500 and 8000 ng/mL were prepared by serial dilution of the standard stock solution in 50% acetonitrile in water. These QC samples were prepared on the day of analysis in the same way as calibration standards.
# (§15) For plasma samples, 2 μL of each calibration standard working solution (2, 5, 10, 20, 50, 100, 500, 1000, 5000 and 10000 ng/mL) was added to 20 μL of the blank SD rat plasma (with 10% 200 mg/mL ascorbic acid) to achieve calibration standards of 0.2-1000 ng/mL (0.2, 0.5, 1, 2, 5, 10, 50, 100, 500, 1000 ng/mL) in a total volume of 22 μL. Quality Control (QC) samples at 0.5 ng/mL (low-1), 1 ng/mL (low-2) and 2 ng/mL (low-3), 50 ng/mL (mid), 800 ng/mL (high) for plasma were prepared independently for those used for the calibration curves. These QC samples were prepared on the day of analysis in the same way as calibration standards. The total volumes of 22 μL of standards, 22 μL of QC samples and 22 μL of unknown samples (20 μL of unknown plasma (with 10% 200 mg/mL ascorbic acid) with 2 μL 50% acetonitrile) were added to 200 μL of acetonitrile containing IS to precipitate proteins. Then the samples were vortexed for 30 sec. After centrifugation at 4° C., 4700 rpm for 30 min, and supernatant was diluted 2 times with water, 10 μL of the diluted supernatant was injected into the LC-MS/MS system for quantitative analysis.
# All the samples were processed on ice.
# (§16) The LC-MS/MS system consisted of two Shimadzu LC-30AD pumps, a DGU-20A5R degasser, a Rack changer II and LCMS-8060 LC/MS/MS instrument mass spectrometer.
# (§17) OD-3R Particle size 3 μm 4.6 mm×150 mm column at room temperature. The mobile phase was composed of A: Water (5 mM Ammonium Acetate); B: Ethanol (5 mM Ammonium Acetate). The flow rate was 0.5 mL/min. The injection volume was 10 μL.
# (§18) A multiple reaction monitoring (MRM) method was selected for quantitative analysis. […] The instrument parameters were set as follows: ion spray voltage: 8060; heating gas flow: 10 L/min; interface temperature: 250° C.; DL temperature: 220° C.; heat block temperature: 400° C.; drying gas flow: 10 L/min.
# (§19) Data acquisition was performed by Lab Solutions version 5.89 Software (Shimadzu). All concentration data was reported with 3 significant figures. Data statistics were performed using Excel 2010 software.
# (§20) The linear trapezoidal algorithm was used for AUC calculation.
# [3] = in vivo; settings: male, C57BL/6J, mouse
# Description: as §1, §2, §3, §4, §5, §6, §7, §8, §9
# [4] = in vivo; settings: male, SD, rat, iv, 0.88 mg/kg
# Description: as §10, §11, §12, §13, §14, §15
# All the samples were processed on ice.
# as §16, §17, §18, §19, §20
# [5] = Pharmacokinetic and brain penetration study, single subcutaneous dose, male C57BL/6J mouse (plasma, CSF, brain); settings: in vivo, sc, 0.0367 mg/kg
# Description: as §1, §2, §3, §4, §5, §6, §7, §8, §9
# [6] = Solubility in aqueous media / aqueous buffer solutions; type: physicochemical; settings: hydrochloride salt, aqueous buffer solutions
smiles,measurement,setting,value
CN1CCc2cccc3c2[C@H]1Cc1ccc(O)c(O)c1-3,Tmax,"[1]; male, C57BL/6J, sc, 0.0367 mg/kg",11.7 min
same,plasma concentration,[1],BLOQ
same,plasma concentration,[2],0.207 ng/mL
same,concentration at […],"[3]; 0.0367 mg/kg, plasma concentration",10.1 ng/mL
same,concentration at 0.5 h,"[3]; brain concentration, Conc. (ng/g)",38 ng/g
same,concentration at 0.5 h,"[3]; brain concentration, Conc. (ng/mL)",7.6 ng/mL
same,concentration at 0.5 h,"[3]; brain concentration, Mean",39.6 ng/g
same,concentration at […],"[3]; brain concentration, Mean",48.4 ng/g
same,concentration at 0.5 h,[3]; plasma concentration,5.06 ng/mL
same,concentration at 1 h,[3]; plasma concentration,1.82 ng/mL
same,concentration at […],[3]; plasma concentration,7.46 ng/mL and 8.5 ng/mL
same,concentration at 0.5 h,"[3]; plasma concentration, Mean",5.15 ng/mL
same,concentration at 1 h,"[3]; plasma concentration, Mean",1.65 ng/mL
same,concentration at […],"[3]; plasma concentration, Mean",6.5 ng/mL and 8.16 ng/mL
same,AUC(0-t),"[3]; sc, 0.0367 mg/kg, AUClast",5.1 ng·h/mL
same,AUC(0-inf),"[3]; sc, 0.0367 mg/kg, AUC∞",5.99 ng·h/mL
same,Cmax,"[3]; sc, 0.0367 mg/kg, Cmax",8.56 ng/mL
same,MRT inf,"[3]; sc, 0.0367 mg/kg, MRTInf",32.5 min
same,concentration at 2 min,[4]; mean plasma concentration,3.75 ng/mL
same,concentration at 0.5 h,[4]; mean plasma concentration,0.559 ng/mL
same,concentration at 1 h,[4]; mean plasma concentration,0.232 ng/mL
same,concentration at 2 min,[4]; plasma concentration,3.85 ng/mL
same,concentration at 0.5 h,[4]; plasma concentration,0.582 ng/mL
same,concentration at 1 h,[4]; plasma concentration,0.257 ng/mL
same,Cmax,[5],7.78 ng/mL
CN1CCc2cccc3c2[C@@H]1Cc1ccc(O)c(O)c1-3.Cl,solubility,[6],low solubility
